From patent publication US8901118B2, “Compounds and methods for kinase modulation, and indications therefor” (Plexxikon Inc., priority 2010, dated 2014)

Assays:
BCR-KIT BaF3 cells = target: T1, BCR-KIT BaF3 cells (Homo sapiens, UniProt P10721); test: BaF3 BCR-KIT cell proliferation assay (ATPlite); assay type: cell-based; details: read-out: Inhibition of Cell Proliferation IC50, BCR/BaF3 Kit
T1 construct: fused on or other part: P11274 (Breakpoint cluster region protein)
Outline: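 For these proliferation assays, engineered BaF3 cells (10,000/well, IL-3 withdrawn) and MV-4-11 cells (25,000/well) received compound serially diluted 1:3 from 10 μM over 8 points, with DMSO as control. After three days of culture, ATP content was measured by luminescence to derive IC50.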

c-Kit kinase = c-Kit kinase (Homo sapiens, UniProt P10721); test: c-Kit kinase biochemical activity assay (AlphaScreen, biotin-(E4Y)10 phosphorylation); details: 100 μM ATP; read-out: Biochemical Inhibition IC50 Kit
Outline: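 AlphaScreen read-out (streptavidin donor, anti-phosphotyrosine PY20 acceptor beads, EDTA stop) of c-Kit activity. Reaction: 0.75 ng kinase, 100 µM ATP, 30 nM biotin-(E4Y)10, 25 mM HEPES pH 7.5, 2 mM MgCl2, 2 mM MnCl2, 5% DMSO, 1 h room temperature. IC50 derived over an 8-point, two-fold dilution series.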

T1 sequence (P10721 589-937): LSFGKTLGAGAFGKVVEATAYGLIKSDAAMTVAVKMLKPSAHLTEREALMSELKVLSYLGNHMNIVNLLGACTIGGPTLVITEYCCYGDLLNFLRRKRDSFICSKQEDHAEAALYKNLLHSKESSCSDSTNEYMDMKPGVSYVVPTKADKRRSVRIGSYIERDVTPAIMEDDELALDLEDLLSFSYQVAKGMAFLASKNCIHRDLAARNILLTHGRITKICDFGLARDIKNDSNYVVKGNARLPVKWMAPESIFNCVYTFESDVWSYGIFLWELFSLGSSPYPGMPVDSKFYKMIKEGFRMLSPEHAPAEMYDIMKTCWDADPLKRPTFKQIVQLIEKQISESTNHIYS
c-Kit kinase, sequence (P10721 26-976): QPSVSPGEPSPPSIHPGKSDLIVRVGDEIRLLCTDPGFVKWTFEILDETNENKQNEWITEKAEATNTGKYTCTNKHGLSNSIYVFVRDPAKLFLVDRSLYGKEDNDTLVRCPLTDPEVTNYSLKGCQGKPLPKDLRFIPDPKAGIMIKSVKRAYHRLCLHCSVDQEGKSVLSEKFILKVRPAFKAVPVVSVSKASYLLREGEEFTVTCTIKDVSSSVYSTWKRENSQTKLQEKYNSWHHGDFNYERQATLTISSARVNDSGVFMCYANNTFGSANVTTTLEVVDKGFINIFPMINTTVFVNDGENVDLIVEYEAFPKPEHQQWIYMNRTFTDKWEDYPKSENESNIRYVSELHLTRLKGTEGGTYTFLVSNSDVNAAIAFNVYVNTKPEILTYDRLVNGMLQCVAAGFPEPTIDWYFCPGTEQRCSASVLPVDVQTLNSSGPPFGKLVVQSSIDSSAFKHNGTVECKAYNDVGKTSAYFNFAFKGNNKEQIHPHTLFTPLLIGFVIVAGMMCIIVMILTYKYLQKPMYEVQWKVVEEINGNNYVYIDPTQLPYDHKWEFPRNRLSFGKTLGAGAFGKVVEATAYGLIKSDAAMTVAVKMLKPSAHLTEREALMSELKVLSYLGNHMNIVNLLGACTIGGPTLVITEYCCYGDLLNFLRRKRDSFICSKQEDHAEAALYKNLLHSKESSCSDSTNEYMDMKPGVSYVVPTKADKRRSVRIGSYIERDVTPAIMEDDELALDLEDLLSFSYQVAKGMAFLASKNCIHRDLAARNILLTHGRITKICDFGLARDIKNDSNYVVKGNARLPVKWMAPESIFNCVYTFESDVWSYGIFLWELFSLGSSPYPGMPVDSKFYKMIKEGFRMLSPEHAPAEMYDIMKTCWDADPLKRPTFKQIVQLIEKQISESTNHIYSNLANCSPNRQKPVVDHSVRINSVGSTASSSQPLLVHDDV

SMILES | IC50 (BCR-KIT BaF3 cells) | IC50 (c-Kit kinase)
Cc1cncc(Nc2ccc(Cc3c[nH]c4ncnc(C5CC5)c34)c(F)n2)c1 [Compound P-4038, [5-(4-Cyclopropyl-7H-pyrrolo[2,3-d]pyrimidin-5-ylmethyl)-6-fluoro-pyridin-2-yl]-(5-methyl-pyridin-3-yl)-amine] | < 1 µM | < 1 µM
Cc1cncc(Nc2ccc(C(=O)c3c[nH]c4ncnc(C5CC5)c34)c(F)n2)c1 [Compound P-4039, (4-Cyclopropyl-7H-pyrrolo[2,3-d]pyrimidin-5-yl)-[2-fluoro-6-(5-methyl-pyridin-3-ylamino)-pyridin-3-yl]-methanone] | < 1 µM | < 1 µM
Fc1nc(NC2CCC(F)(F)CC2)ccc1Cc1c[nH]c2ncnc(NCC(F)(F)F)c12 [Compound P-4128, 5-[[6-[(4,4-difluorocyclohexyl)amino]-2-fluoro-3-pyridyl]methyl]-N-(2,2,2-trifluoroethyl)-7H-pyrrolo[2,3-d]pyrimidin-4-amine] | < 1 µM | > 1 µM
Fc1nc(NC2CCC(F)(F)CC2)ccc1Cc1c[nH]c2ncnc(NC3CC3)c12 [Compound P-4129, N-cyclopropyl-5-[[6-[(4,4-difluorocyclohexyl)amino]-2-fluoro-3-pyridyl]methyl]-7H-pyrrolo[2,3-d]pyrimidin-4-amine] | < 1 µM | < 1 µM
Fc1nc(Nc2ccc(C3CC3)nc2)ccc1Cc1c[nH]c2ncnc(NCC(F)(F)F)c12 [Compound P-4130, 5-[[6-[(6-cyclopropyl-3-pyridyl)amino]-2-fluoro-3-pyridyl]methyl]-N-(2,2,2-trifluoroethyl)-7H-pyrrolo[2,3-d]pyrimidin-4-amine] | > 1 µM | < 1 µM
